In patent publication EP4635500A1, “THERAPEUTIC AGENT FOR BACTERIAL INFECTION” (Sumitomo Pharma Co., Ltd., priority 2022, dated 2024):
Values after ≈ are worked out from the molar mass of the structure shown. Where two headings read alike, the source gives them in different places.

Key:
[1] = system: carbapenemase-producing Enterobacteriaceae (CPE); experiment: MIC with human plasma or human serum albumin added (Example 12, Table 28); format: cell-based
Acinetobacter baumannii = experiment: Systemic infection lethal mouse model, ED50 (Example 15, Table 34); details: for ED50: Acinetobacter baumannii, in Mus musculus; for Survival rate: 7 days after infection
Procedure: The test strains on the agar medium were suspended in saline and adjusted to a Klett unit of about 200 using a Klett Photoelectric Colorimeter. […] Male ICR mice were inoculated intraperitoneally with 0.2 mL of the bacterial suspension. Two hours after the inoculation, saline or a solution for administering the agent of each concentration was administered subcutaneously to the mice in a single dose. The number of mice that survived from Day 1 to Day 7 after infection was recorded.

A. baumannii = experiment: MIC, Gram-negative bacteria clinically isolated in the United States (Example 8, Table 16); format: cell-based; details: Acinetobacter baumannii; A. baumannii (80 strains) isolated in the United States; Compound A µg/mL in parentheses
E. coli = experiment: as above; format: cell-based; details: E. coli (80 strains) isolated in the United States, Compound A µg/mL in parentheses
[2] = system: E. coli ATCCBAA-2469 producing NDM-1; experiment: Systemic infection lethal mouse model, ED50 (Example 14, Table 32); details: 7 days after infection
Procedure: (§1) The test strains on the agar medium were suspended in saline and adjusted to a Klett unit of about 200 using a Klett Photoelectric Colorimeter. […] Male ICR mice were inoculated intraperitoneally with 0.2 mL of the bacterial suspension. Two hours after the inoculation, saline or a solution for administering the agent at each concentration was administered subcutaneously to the mice in a single dose. The number of mice that survived from Day 1 to Day 7 after infection was recorded.

[3] = system: K. pneumoniae ATCCBAA-2344 producing KPC-2; experiment: Systemic infection lethal mouse model, ED50 (Example 14, Table 31); details: 7 days after infection
Procedure: as §1

Molecule `C[C@@H](O)[C@H]1C(=O)N2C(C(=O)O)=C(S[C@@H]3CN[C@H](C(=O)N(C)C)C3)[C@H](C)[C@H]12` [MEPM, meropenem] has an MIC ([1]; Klebsiella pneumoniae, ATCCBAA2342, read-out: MICs of MEPM, K. pneumoniae ATCC BAA-2342 (KPC-3), Plasma 50%) of 16 µg/mL (≈ 41.7 µM), an MIC ([1]; Klebsiella pneumoniae, ATCCBAA2344, read-out: MICs of MEPM, K. pneumoniae ATCC BAA-2344 (KPC-2), Albumin 0% (standard condition)) of 16 µg/mL (≈ 41.7 µM) and an MIC ([1]; Klebsiella pneumoniae, ATCCBAA2344, read-out: MICs of MEPM, K. pneumoniae ATCC BAA-2344 (KPC-2), Albumin 4%) of 32 µg/mL (≈ 83.4 µM). The MIC ([1]; Klebsiella pneumoniae, ATCCBAA2344, read-out: MICs of MEPM, K. pneumoniae ATCC BAA-2344 (KPC-2), Plasma 20%) was 16 µg/mL (≈ 41.7 µM), the MIC ([1]; Klebsiella pneumoniae, ATCCBAA2344, read-out: MICs of MEPM, K. pneumoniae ATCC BAA-2344 (KPC-2), Plasma 50%) was 16 µg/mL (≈ 41.7 µM) and the MIC ([1]; Klebsiella pneumoniae, ATCCBAA2470, read-out: MICs of MEPM, K. pneumoniae ATCC BAA-2470 (NDM-1), Albumin 0% (standard condition)) was 16 µg/mL (≈ 41.7 µM). For the same molecule, the MIC ([1]; Klebsiella pneumoniae, ATCCBAA2470, read-out: MICs of MEPM, K. pneumoniae ATCC BAA-2470 (NDM-1), Albumin 4%) was 8 µg/mL (≈ 20.9 µM), the MIC ([1]; Klebsiella pneumoniae, ATCCBAA2470, read-out: MICs of MEPM, K. pneumoniae ATCC BAA-2470 (NDM-1), Plasma 20%) was 0.5 µg/mL (≈ 1.3 µM) and the MIC ([1]; Klebsiella pneumoniae, ATCCBAA2470, read-out: MICs of MEPM, K. pneumoniae ATCC BAA-2470 (NDM-1), Plasma 50%) was 0.5 µg/mL (≈ 1.3 µM). The MIC ([1]; Klebsiella pneumoniae, ATCCBAA2524, read-out: MICs of MEPM, K. pneumoniae ATCC BAA-2524 (OXA-48), Albumin 0% (standard condition)) was 1 µg/mL (≈ 2.61 µM), the MIC ([1]; Klebsiella pneumoniae, ATCCBAA2524, read-out: MICs of MEPM, K. pneumoniae ATCC BAA-2524 (OXA-48), Albumin 4%) was 0.5 µg/mL (≈ 1.3 µM) and the MIC ([1]; Klebsiella pneumoniae, ATCCBAA2524, read-out: MICs of MEPM, K. pneumoniae ATCC BAA-2524 (OXA-48), Plasma 20%) was 2 µg/mL (≈ 5.22 µM). It also gave an MIC ([1]; Klebsiella pneumoniae, ATCCBAA2524, read-out: MICs of MEPM, K. pneumoniae ATCC BAA-2524 (OXA-48), Plasma 50%) of 4 µg/mL (≈ 10.4 µM), an MIC ([1]; read-out: MICs of MEPM, K pneumoniae NCTC13439 (VIM-1), Albumin 0% (standard condition)) of 4 µg/mL (≈ 10.4 µM) and an MIC ([1]; read-out: MICs of MEPM, K pneumoniae NCTC13439 (VIM-1), Albumin 4%) of 2 µg/mL (≈ 5.22 µM). For the same molecule, the MIC ([1]; read-out: MICs of MEPM, K pneumoniae NCTC13439 (VIM-1), Plasma 20%) was ≤ 0.12 µg/mL, the MIC ([1]; read-out: MICs of MEPM, K pneumoniae NCTC13439 (VIM-1), Plasma 50%) was ≤ 0.12 µg/mL and the “ED50 of MEPM” value (Acinetobacter baumannii; Acinetobacter baumannii CDC-303 (OXA-23, OXA-66), single s.c. dose, with cilastatin 100 mg/kg) was ≥ 300 mg/kg. For the same molecule, the ED50 (Acinetobacter baumannii; read-out: ED50 of MEPM, value estimated by probit analysis, CDC-83 (Serine and metallo), cell prints ND, estimate in brackets, above the highest dose of 300 mg/kg) was 401 mg/kg, the ED50 (Acinetobacter baumannii; read-out: ED50 of MEPM, value estimated by probit analysis, CDC-303 (Serine), cell prints ND, estimate in brackets, above the highest dose of 300 mg/kg) was 6550 mg/kg and the ED50 (Acinetobacter baumannii; sc, read-out: ED50 of MEPM) was ≥ 300 mg/kg. It also gave a Survival rate (Acinetobacter baumannii; CDC-83 (Serine and metallo), Dose 30 mg/kg) of 0%, a Survival rate (Acinetobacter baumannii; CDC-83 (Serine and metallo), Dose 100 mg/kg) of 10% and a Survival rate (Acinetobacter baumannii; CDC-83 (Serine and metallo), Dose 200 mg/kg) of 20%. The Survival rate (Acinetobacter baumannii; CDC-83 (Serine and metallo), Dose 300 mg/kg) was 40%, the Survival rate (Acinetobacter baumannii; CDC-303 (Serine), Dose 50 mg/kg) was 10% and the Survival rate (Acinetobacter baumannii; CDC-303 (Serine), Dose 100 mg/kg) was 0%. It also gave a Survival rate (Acinetobacter baumannii; CDC-303 (Serine), Dose 200 mg/kg) of 10%, a Survival rate (Acinetobacter baumannii; CDC-303 (Serine), Dose 300 mg/kg) of 20% and an MIC50 (A. baumannii) of 2 µg/mL (≈ 5.22 µM). For the same molecule, the MIC90 (A. baumannii) was 64 µg/mL (≈ 167 µM), the MICrange (E. coli) was ≤0.125 to 16 µg/mL and the MIC50 (E. coli; Escherichia coli) was ≤ 0.125 µg/mL. For the same molecule, the MIC90 (E. coli; Escherichia coli) was ≤ 0.125 µg/mL, the Survival rate ([2]; Dose 10 mg/kg) was 10% and the Survival rate ([2]; Dose 30 mg/kg) was 0%. For the same molecule, the Survival rate ([2]; Dose 60 mg/kg) was 0%, the Survival rate ([2]; Dose 100 mg/kg) was 80% and the Survival rate ([3]; Dose 10 mg/kg) was 10%. The Survival rate ([3]; Dose 30 mg/kg) was 10%, the Survival rate ([3]; Dose 60 mg/kg) was 10% and the Survival rate ([3]; Dose 100 mg/kg) was 50%.
